Assay results taken from US20230203471A1, “METHOD AND PLATFORM FOR DISRUPTING INTRACELLULAR MICROTUBULES” (National Tsing Hua University, priority 2021, published 2023).

Key:
[1] = system: intracellular microtubules in HeLa cells; assay: Live-cell imaging of MT disruption (MT filament area) in transfected HeLa cells; format: cell-based
Experimental: The procedures of live-cell imaging are as follows. Live transfected cells cultured on poly(d-lysine)-coated glass coverslips (Hecht Assistent) were treated with either 100 nM rapamycin for rapid induction of protein dimerization and translocation or MT-targeting agents (10 µM nocodazole or 500 µM colchicine) during imaging. Live-cell imaging was conducted on a Nikon T1 inverted fluorescence microscope (Nikon) with a 60× oil objective (Nikon), a Prime camera (Photometrics), and 37° C., 5% CO2 heat stage (Live Cell Instrument). Rapid recruitment of proteins of interest (POIs) was imaged at 5- or 10-sec intervals, whereas the process of MT disruption was imaged at 1-min intervals. Images were obtained using Nikon NIS-Elements AR software and processed with Huygens Deconvolution Software (Scientific Volume Imaging). Image analysis was mainly performed with Nikon NIS-Elements AR software.
The procedures of measurement of MT filament area are as follows. The MT filaments in living cells were labeled with EMTB-CFP-FRB and imaged in real time (RAW image). The rolling ball correction was used to remove the cytosol background from the RAW images, which was carried out with the Nikon NIS-Elements AR software. Images were processed to generate the binary MT filament pattern via the Otsu threshold and analyzed by Fiji software.
FIGS. 2D and 2E show rapidly recruiting engineered spastins onto MTs. […] The top three layers are cells that simultaneously express EMTB-CFP-FRB and dNSpastin3Q-YFP-FKBP. The lower three layers are cells that simultaneously express EMTB-CFP-FRB and dNSpastin-YFP-FKBP-C2Lact. The color bar on the right indicates the brightness value represented by the color of the FRET signal. […] Data are shown as the mean ± S.E.M. It was noteworthy that MT disruption triggered by dNSpastin3Q-YFP-FKBP upon rapamycin treatment (T½ = 11.05 ± 1.52 min) was much faster than that of dNSpastin-YFP-FKBP-C2Lact upon rapamycin treatment (T½ = 53.08 ± 8.08 min), and treatment of two common MTAs, nocodazole (10 µM; T½ = 54.02 ± 10.29 min), colchicine (500 µM; T½ = 94.28 ± 8.63 min; see FIGS. 2F to 2J). […] In FIG. 2H, HeLa cells transfected with the indicated constructs were treated with nocodazole (Noc)([…], a type of MTA), colchicine (Col)(500 µM, a type of MTA), or rapamycin (Rapa)(100 nM); scale bar, 10 µm. […] Data are shown as the mean ± S.E.M. Student’s t-tests were performed, with the resulting p-values indicated.

[2] = system: intracellular microtubules in HeLa cells; assay: as above; format: cell-based; settings: nocodazole 3.3 µM

## COC(=O)Nc1nc2ccc(C(=O)c3cccs3)cc2[nH]1 [nocodazole]
[1]; 3.3 µM nocodazole
  microtubules removed within one hour: 31%
[1]; nocodazole 10 µM, HeLa cells
  T½ of MT disruption: 54.02 ± 10.29 min
[2]
  time required to disrupt half of the intracellular microtubules: 106.86 ± 12.11 min
